This is an account of results in patent US20120171229A1, “SYNTHETIC NANOCARRIERS WITH REACTIVE GROUPS THAT RELEASE BIOLOGICALLY ACTIVE AGENTS” (Selecta Biosciences, Inc., priority 2010, published 2012).

A short description of this data set: Release by thiol addition and hydride reduction (TLC). It counts as physicochemical. The following applies: water with a drop of acetic acid, 2 hours. On the procedure: A portion of the amide was dissolved in water with a drop of acetic acid. This yellow solution was divided into two portions. One portion was treated with sodium dithionite, a reducing agent, and the other was treated with 2-mercaptoethanol. After 2 hours, the samples were diluted with water and extracted with ethyl acetate.

As to `CN1CCN(C(=O)CC(C)(C)C2=CC(=O)c3ccccc3C2=O)CC1` [Example 8], the “Release by thiol addition, TLC result” value (2-mercaptoethanol) is “the amide had been consumed with a colorless, non-polar product (lactone) being formed”. Moreover, the “Release by hydride reduction, TLC result” value (sodium dithionite) is recorded as “the amide had been consumed with a colorless, non-polar product (lactone) being formed”.
